Measurements published in patent US20260028364A1, “CATIONIC CHROMENONES AND THEIR USE IN ONCOLOGY” (FLORATEK PHARMA S.A., priority 2022, published 2026).
pIC50: −log10 of the molar value.

What was measured:
[1] = test system: SK-Mel-5; test: Caspase-Glo 3/7 apoptosis assay, SK-Mel-5; format: cell-based; details: SK-Mel-5 cells, 1 μM, 24 h
Procedure: (§1) Apoptosis activity was evaluated using Caspase-Glo 3/7 Assay kit (Promega-G8091) according to the manufacturer's instructions. Cells were grown as above and harvested from exponential phase cultures, counted and plated in 96 black well flat-bottom microtiter plates at a cell density depending on the cell line's growth rate (3,000-10,000 cells/well depending on the cell line's growth rate). Following an overnight incubation, compounds were added to the cell plates at various concentrations (highest at […]) with the DMSO concentration maintained at 0.1% for a 24 h period treatment. 100 μL of Caspase-Glo 3/7 Reagent was added to each well of 96-well plate containing 100 μL culture medium, and after 30 min at room temperature, luminescence was measured with the microplate luminometer (EnVision Perkin Elmer). The induced relative Caspase 3/7 activity of the tested compounds was determined by the following formula: Relative Caspase 3/7 activity (fold increase)=(RLU compound−RLU blank)/(RLU control−RLU blank).

[2] = test system: Daudi; test: CellTiter-Glo cell viability, Daudi; format: cell-based; details: Homo sapiens; Daudi cells, 72 h with compound
Procedure: (§2) Antitumor activity against a panel of cancer cell lines Antitumor activity of the compounds was assessed by using the CellTiter-Glow® Luminescent Cell Viability assay (Promega #G7572) according to the manufacturer's instructions. The compounds were tested at 5 or 6 concentrations in 1:2 dilution increments (highest concentration 10 µM) in triplicate well conditions.
(§3) Tumor cells were grown at 37° C. in a humidified atmosphere with 5% CO2 in RPMI 1640 or DMEM medium, supplemented with 10% (v/v) fetal calf serum and 50 μg/ml gentamicin for up to 20 passages, and were passaged once or twice weekly. Cells were harvested using TrypLE or PBS buffer containing 1 mM EDTA, and the percentage of viable cells is determined using a cell counter.
(§4) Cells were harvested from exponential phase cultures, counted and plated in 96 well flat-bottom microtiter plates at a cell density depending on the cell line's growth rate (4,000-20,000 cells/well depending on the cell line's growth rate) in RPMI 1640 or DMEM medium supplemented with 10% (v/v) fetal calf serum and 50 μg/ml gentamicin (140 μl/well). Cultures were incubated at 37° C. and 5% CO2 in a humidified atmosphere. […] Viability of cells was quantified by the CellTiter-Glow® Luminescent Cell Viability assay (Promega #G7572). Luminescence was measured with the microplate luminometer (En Vision Perkin Elmer). […]

[3] = test system: Raji; test: CellTiter-Glo cell viability, Raji; format: cell-based; details: Homo sapiens; Raji cells, 72 h with compound
Procedure: as §2, §3, §4

[4] = Tolerability in the A2058 xenograft study; format: in vivo, Balb-c/nude mouse; details: peritumoral QOD; resolved after the treatment was stopped
Procedure: Each Balb-c/nude mouse was inoculated subcutaneously at the right flank with A2058 melanoma tumor cells (5×10^6+Matrigel) in 0.2 ml of PBS for tumor development. 10 animals per group were randomized when the average tumor volume reached 74 mm^3. Test compounds were prepared as DMSO stocks and diluted in the injection vehicle before administration. The treatment was administered every other day (QOD) as a peritumoral injection. Vehicle composition was 4% DMSO, 5% ethanol, 20% PEG200, 71% saline. Dosing volume for all groups: 5 mL/kg.
Body weight and clinical signs were monitored throughout the study.

[5] = test system: MeWo; test: Caspase-Glo 3/7 apoptosis assay, MeWo; format: cell-based; details: MeWo cells, 10 μM, 24 h
Procedure: as §1

[6] = test system: Oxidative Stress; test: SelectScreen CellSensor pathway inhibition, Oxidative Stress; format: cell-based; details: Homo sapiens; ARE-bla HepG2, stimulus tBHQ
Procedure: Inhibition of various cellular pathways known to be involved in malignancy was tested using the SelectScreen Cell-based Pathway Profiling GeneBLAzer™ cell signaling pathway specific CellSensor™ cell lines ((Thermo Fisher). The assay is based on a beta-lactamase reporter activity which is modulated and can be measured quantitatively and selectively with the LiveBLAzer™-FRET B/G Loading Substrate. SelectScreen Cell-Based Pathway Profiling Service uses XLfit from IDBS. The dose response curve is curve fit to model number 205 (sigmoidal dose-response model). Custom logic was built by Thermo Fisher for the data analysis tool to address the different compound characteristics that can be observed with functional assays.
Oxidative Stress—ARE-bla HepG2—Inhibitor Screen, Activated by tBHQ
ARE-bla HepG2 cells are thawed and resuspended in Assay Media (DMEM, 10% dialyzed FBS, 25 mM HEPES pH 7.3, 0.1 mM NEAA, 100 U/mL/100 μg/mL Pen/Strep) to a concentration of 375,000 cells/mL. 32 μL of cell suspension is added to each well of a 384-well Poly-D-Lysine assay plate. Cells in Assay Media are incubated for 16-24 hours in the plate at 37° C./5% CO2 in a humidified incubator. […] The plate is read on a fluorescence plate reader.

pIC50 [2]: 6.15
pIC50 [3]: 6.28
pIC50 [6]: 5.87
SMILES: COc1ccc2c(=O)c(-c3ccc(CCCC[P+](c4ccccc4)(c4ccccc4)c4ccccc4)cc3)coc2c1OC.[Br-] [SND470, (4-(4-(7,8-Dimethoxy-4-oxo-4H-chromen-3-yl)phenyl)butyl)triphenylphosphonium bromide]
Fold activation of Caspase 3/7 [1]: 7.22 Fold
finding at the site of the injection [4]: slight scabbing at the site of the injection
Fold activation of Caspase 3/7 [5]: 2.55 Fold
